From patent US9561228B2 (Celgene Avilomics Research, Inc., priority 2013, dated 2017) come the findings set out here.

Test [1] deals with ERK1/2 phosphorylation of p90RSK in A375 cells. Description: Detection of total and phosphor-RSK by MSD ELISA (A375). The class given is cell-based. The settings on record: Homo sapiens, A-375, read-out: ERK1/ERK2 PRSK A375 EC50. An outline of the steps: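 Electrochemiluminescent MSD ELISA: common RSK capture antibody, with pRSK Ser380 or total RSK detection antibodies plus SulfoTag secondaries. Samples were lysates of A375 cells exposed to compound for 2 h at 37° C after overnight culture in 0.1% FBS DMEM.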

In test [2] the test system is ERK1/2 phosphorylation of p90RSK in HT29 cells. Description: pRSK MSD Assay in HT29 cells. The class given is cell-based. The settings on record: Homo sapiens, HT-29, read-out: ERK1/ERK2 PRSK MSD HT29 EC50. An outline of the steps: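 Phospho-RSK level, read by electrochemiluminescence on RSK-antibody-coated MSD plates with a phospho-RSK/Sulfo-tag detection pair, reports cellular ERK1/2 activity. HT29 cells, kept overnight in 0.1% FBS medium, were exposed to compound for 120 min at 37° C before lysis.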

The structures appear in SMILES notation. pEC50: −log10 of the molar value. Some results are limits rather than exact numbers.

On to `C=CC(=O)Nc1cc(CN2CCN(C(C)=O)C[C@@H]2C)ccc1Nc1nc(Nc2cc(OC)ncc2C)ncc1C(F)(F)F` [Compound I-421, (S)—N-(5-((4-acetyl-2-methylpiperazin-1-yl)methyl)-2-((2-((2-methoxy-5-methylpyridin-4-yl)amino)-5-(trifluoromethyl)pyrimidin-4-yl)amino)phenyl)acrylamide], for which the pEC50 in test [1] and in test [2] was 6.30 to 7.00 throughout.
Turning to `C=CC(=O)Nc1cc(C)ccc1Nc1nc(Nc2cc(OC)nc(OC)c2)ncc1C(F)(F)F` [Compound I-96], the pEC50 in test [1] was 6.30 to 7.00.
Take `C=CC(=O)Nc1cc(CN2CCN(C(=O)c3cccnc3)CC2)ccc1Nc1nc(Nc2nc(OC)ncc2C)ncc1C(F)(F)F` [Compound I-392, N-(2-((2-((2-methoxy-5-methylpyrimidin-4-yl)amino)-5-(trifluoromethyl)pyrimidin-4-yl)amino)-5-((4-nicotinoylpiperazin-1-yl)methyl)phenyl)acrylamide]: the figures for the pEC50 in test [1] and in test [2] were less than 6.00 and 6.00 to 6.30, respectively.
For `C=CC(=O)Nc1cc(O[C@H](C)C(=O)N2CCN(S(C)(=O)=O)CC2)ccc1Nc1nc(Nc2cc(OC)ncc2C)ncc1C(F)(F)F` [Compound I-410, (R)—N-(2-((2-((2-methoxy-5-methylpyridin-4-yl)amino)-5-(trifluoromethyl)pyrimidin-4-yl)amino)-5-((1-(4-(methylsulfonyl)piperazin-1-yl)-1-oxopropan-2-yl)oxy)phenyl)acrylamide] the same measures were 6.30 to 7.00 and 6.30 to 7.00.
With `C=CC(=O)Nc1cc(CCC(N)=O)ccc1Nc1nc(Nc2cc(OC)ncc2C)ncc1C(F)(F)F` [Compound I-400, N-(5-(3-amino-3-oxopropyl)-2-((2-((2-methoxy-5-methylpyridin-4-yl)amino)-5-(trifluoromethyl)pyrimidin-4-yl)amino)phenyl)acrylamide], the pEC50 in test [1] and in test [2] was greater than 7.00 in each case.
In the case of `C=CC(=O)Nc1cc(O[C@@H](C)C(N)=O)ccc1Nc1nc(Nc2cc(OC)ncc2C)ncc1C(F)(F)F` [Compound I-412, (S)—N-(5-((1-amino-1-oxopropan-2-yl)oxy)-2-((2-((2-methoxy-5-methylpyridin-4-yl)amino)-5-(trifluoromethyl)pyrimidin-4-yl)amino)phenyl)acrylamide], the pEC50 in test [1] was greater than 7.00; in test [2], less than 6.00.
`C=CC(=O)Nc1cc(O[C@H](C)C(=O)N2CCN(C(C)=O)CC2)ccc1Nc1nc(Nc2cc(OC)ncc2C)ncc1C(F)(F)F` [Compound I-409, (R)—N-(5-((1-(4-acetylpiperazin-1-yl)-1-oxopropan-2-yl)oxy)-2-((2-((2-methoxy-5-methylpyridin-4-yl)amino)-5-(trifluoromethyl)pyrimidin-4-yl)amino)phenyl)acrylamide]: the pEC50 in test [1] was less than 6.00; in test [2], 6.00 to 6.30.
For `C=CC(=O)Nc1cc(C)ccc1Nc1nc(Nc2ccc3ocnc3c2)ncc1C(F)(F)F` [Compound I-375, N-(2-((2-(benzo[d]oxazol-5-ylamino)-5-(trifluoromethyl)pyrimidin-4-yl)amino)-5-methylphenyl)acrylamide] the same measures were 6.30 to 7.00 and less than 6.00.
As for `C=CC(=O)Nc1cc(C)c(C#N)cc1Nc1nc(NC2CCOCC2)ncc1C(F)(F)F` [Compound I-397, N-(4-cyano-5-methyl-2-((2-((tetrahydro-2H-pyran-4-yl)amino)-5-(trifluoromethyl)pyrimidin-4-yl)amino)phenyl)acrylamide], the pEC50 in test [1] and in test [2] was 6.00 to 6.30 throughout.
As for `C=CC(=O)Nc1cc(C)c(F)cc1Nc1nc(Nc2nc(OC)ncc2C)ncc1C(F)(F)F` [Compound I-377, N-(4-fluoro-2-((2-((2-methoxy-5-methylpyrimidin-4-yl)amino)-5-(trifluoromethyl)pyrimidin-4-yl)amino)-5-methylphenyl)acrylamide], the pEC50 in test [1] and in test [2] was greater than 7.00 throughout.
With `C=CC(=O)Nc1cc(C)ccc1Nc1nc(Nc2cc(OCC)ncc2C)ncc1C(F)(F)F` [Compound I-358, N-(2-((2-((2-ethoxy-5-methylpyridin-4-yl)amino)-5-(trifluoromethyl)pyrimidin-4-yl)amino)-5-methylphenyl)acrylamide], the pEC50 in test [1] and in test [2] was 6.30 to 7.00 throughout.
As for `C=CC(=O)Nc1ccccc1Nc1nc(Nc2cc(OC)ncc2C)ncc1C(F)(F)F` [Compound I-85, N-(2-((2-((2-Methoxy-5-methylpyridin-4-yl)amino)-5-(trifluoromethyl)pyrimidin-4-yl)amino)phenyl)acrylamide], the pEC50 in test [1] and in test [2] was greater than 7.00 throughout.
Take `C=CC(=O)Nc1cc(OCCN2CCN(C(C)=O)CC2)ccc1Nc1nc(Nc2cc(OC)ncc2C)ncc1C(F)(F)F` [Compound I-416, N-(5-(2-(4-acetylpiperazin-1-yl)ethoxy)-2-((2-((2-methoxy-5-methylpyridin-4-yl)amino)-5-(trifluoromethyl)pyrimidin-4-yl)amino)phenyl)acrylamide]: the pEC50 in test [1] and in test [2] was 6.30 to 7.00 each time.
With `C=CC(=O)Nc1cc(O[C@@H](C)C(=O)N2CCN(S(C)(=O)=O)CC2)ccc1Nc1nc(Nc2cc(OC)ncc2C)ncc1C(F)(F)F` [Compound I-426, (S)—N-(2-((2-((2-methoxy-5-methylpyridin-4-yl)amino)-5-(trifluoromethyl)pyrimidin-4-yl)amino)-5-((1-(4-(methylsulfonyl)piperazin-1-yl)-1-oxopropan-2-yl)oxy)phenyl)acrylamide], the pEC50 was 6.30 to 7.00 in test [1] and greater than 7.00 in test [2].
For `C=CC(=O)Nc1cc(C)ccc1Nc1nc(Nc2nc(OC)ccc2Cl)ncc1C(F)(F)F` [Compound I-360, N-(2-((2-((3-chloro-6-methoxypyridin-2-yl)amino)-5-(trifluoromethyl)pyrimidin-4-yl)amino)-5-methylphenyl)acrylamide] the same measures were 6.30 to 7.00 and 6.30 to 7.00.
As for `C=CC(=O)Nc1cc(C)ccc1Nc1nc(Nc2cc(C(C)=O)ccc2C)ncc1C(F)(F)F` [Compound I-84, N-(2-((2-((5-Acetyl-2-methylphenyl)amino)-5-(trifluoromethyl)pyrimidin-4-yl)amino)-5-methylphenyl)acrylamide], the pEC50 in test [2] was greater than 7.00.
Turning to `C=CC(=O)Nc1cc(C)ccc1Nc1nc(Nc2cc(N[C@H]3CC[C@](C)(O)CC3)nc(OC)c2)ncc1C(F)(F)F` [Compound I-327, N-(2-((2-((2-((trans-4-hydroxy-4-methylcyclohexyl)amino)-6-methoxypyridin-4-yl)amino)-5-(trifluoromethyl)pyrimidin-4-yl)amino)-5-methylphenyl)acrylamide], the pEC50 in test [1] was greater than 7.00.
The same measure, in the same setting: the value for `C=CC(=O)Nc1cc(C)ccc1Nc1nc(Nc2nc(OC)ncc2Cl)ncc1C(F)(F)F` [Compound I-344, N-(2-((2-((5-chloro-2-methoxypyrimidin-4-yl)amino)-5-(trifluoromethyl)pyrimidin-4-yl)amino)-5-methylphenyl)acrylamide] was 6.30 to 7.00; that for `C=CC(=O)Nc1ccccc1Nc1nc(Nc2cc(OC)nc(N3CCN(C(C)=O)CC3)c2)ncc1C(F)(F)F` [Compound I-92] was greater than 7.00.
